Laboratory results published in US11802147B2, “High affinity monoclonal antibodies for detecting amanitins” (priority 2019, dated 2023).
Values after ≈ are worked out from the molar mass of the structure shown. Where two headings read alike, the source gives them in different places. Starred links: 1 amine or outer side, 2 acyl side, 3 side chain; linkers in the order of their positions; H or OH if unused. Positions of bridges follow the written chain, without caps; N, C: chain ends. Non-standard residues stand in square brackets, D forms with d. Residues, ends and D or L forms follow the SMILES beside them. ξ: configuration not given here. Adda = CO[C@@H](Cc1ccccc1)[C@@H](C)/C=C(C)/C=C/[C@H](N[*:1])[C@H](C)C(=O)[*:2]; Trp(2-yl) = O=C([C@H](Cc1c([*:3])[nH]c2ccccc12)N[*:1])[*:2]; dAsp(3S-Me) = C[C@H](C(=O)[*:3])[C@@H](N[*:1])C(=O)[*:2]; ξTrp(2-yl) = O=C(C(Cc1c([*:3])[nH]c2ccccc12)N[*:1])[*:2]; Leu(4R-OH,5-OH) = C[C@](O)(CO)C[C@H](N)C(=O)O; d(γGlu) = O=C(O)[C@@H](CCC(=O)[*:2])N[*:1]; X1 = CC(O)(CO)CC(N[*:1])C(=O)[*:2]; cisHyp = O=C(O)[C@@H]1C[C@H](O)CN1; ξAsp(3ξ-OH) = NC(C(=O)O)C(O)C(=O)O; Hyp = O=C(O)[CH]1C[CH](O)CN1; NMeDha = C=C(NC)C(=O)O

What was measured:
mAb 9G3.2 = type: binding, mouse; details: for competitive inhibition of mAb 9G3.2: cELISA, up to 1,000 ng/mL; for recognition by mAb 9G3.2: statement of deposit
mAb 9C12.2 = type: binding, mouse; details: for competitive inhibition of mAb 9C12.2: cELISA, up to 1,000 ng/mL; for recognition by mAb 9C12.2: statement of deposit
mAb AMA9G3 = type: binding, mouse; parameters: concentration at which test strips detect: unit not given here; details: for concentration giving complete inhibition of the signal: either hapten as test line; for CR (cross-reactivity): lateral flow test strips
[1] = test system: Previously described mAbs to amatoxins; details: He et al; cited from earlier work
[2] = mAb 9G3.2, (IC50 α-AMA)/(IC50 test inhibitor)×100
[3] = mAb 9G3.2, inhibitor mixed with antibody, PERI-AMA-BSA coated plate
[4] = mAb 9C12.2, (IC50 α-AMA)/(IC50 test inhibitor)×100
[5] = mAb 9C12.2, inhibitor mixed with antibody, PERI-AMA-BSA coated plate
[6] = cross-reactivity with near neighbor compounds

## CC[C@H](C)[C@@H]1NC(=O)CNC(=O)[C@@H]2Cc3c([nH]c4cc(O)ccc34)[S+]([O-])C[C@@H](NC(=O)CNC1=O)C(=O)N[C@@H](CC(N)=O)C(=O)N1C[C@H](O)C[C@H]1C(=O)N[C@@H]([C@@H](C)[C@@H](O)CO)C(=O)N2 (stereo in doubt) [α-amanitin]
mAb 9G3.2
  competitive inhibition of mAb 9G3.2: competitively inhibited
  recognition by mAb 9G3.2: recognizes
mAb 9G3.2; [2]
  Cross reactivity: 100%
mAb 9G3.2; [3]
  IC50: 0.00157 µg/mL (≈ 0.00171 µM)
mAb 9C12.2
  competitive inhibition of mAb 9C12.2: competitively inhibited
  recognition by mAb 9C12.2: recognizes
mAb 9C12.2; [4]
  Cross reactivity: 100%
mAb 9C12.2; [5]
  IC50: 0.00266 ± 0.00018 µg/mL (≈ 0.00289 µM)
mAb AMA9G3
  concentration giving complete inhibition of the signal: 10 ng/mL
[1]
  IC50 of previously described mAbs: 0.066 µg/mL

## N[C@H](C(=O)O)c1cc(=O)[nH]o1 [ibotenic acid]
mAb 9G3.2; [2]
  Cross reactivity: <0.3%
mAb 9G3.2; [3]
  IC50: >1 µg/mL
mAb 9C12.2; [4]
  Cross reactivity: <0.3%
mAb 9C12.2; [5]
  IC50: >1 µg/mL
mAb AMA9G3; [6]
  detection by test strips: did not detect

## C=C1C(=O)N[C@H](C)C(=O)N[C@@H](CC(C)C)C(=O)N[C@@H](C(=O)O)[C@H](C)C(=O)N[C@@H](CCCNC(=N)N)C(=O)N[C@@H](/C=C/C(C)=C/[C@H](C)[C@H](Cc2ccccc2)OC)[C@H](C)C(=O)N[C@@H](C(=O)O)CCC(=O)N1C [microcystin-LR] (R[Adda][d(γGlu)][NMeDha][dA]L[dAsp(3S-Me)]-OH; lactam N-7)
mAb 9G3.2
  Cross reactivity: <0.3%
  IC50: >1 µg/mL
mAb 9C12.2
  Cross reactivity: <0.3%
  IC50: >1 µg/mL
mAb AMA9G3
  detection by test strips: did not detect

## NCc1cc(=O)[nH]o1 [muscimol]
mAb 9G3.2; [2]
  Cross reactivity: <0.3%
mAb 9G3.2; [3]
  IC50: >1 µg/mL
mAb 9C12.2; [4]
  Cross reactivity: <0.3%
mAb 9C12.2; [5]
  IC50: >1 µg/mL
mAb AMA9G3; [6]
  detection by test strips: did not detect

## C/C=C1/C(=O)N[C@@H](C(=O)O)[C@H](C)C(=O)N[C@@H](CCCNC(=N)N)C(=O)N[C@@H](/C=C/C(C)=C/[C@H](C)[C@H](Cc2ccccc2)OC)[C@H](C)C(=O)N[C@@H](C(=O)O)CCC(=O)N1C [nodularin]
mAb 9G3.2
  Cross reactivity: <0.3%
  IC50: >1 µg/mL
mAb 9C12.2
  Cross reactivity: <0.3%
  IC50: >1 µg/mL
mAb AMA9G3
  detection by test strips: did not detect

## CC1NC(=O)C2CC(O)CN2C(=O)C2CSc3[nH]c4ccccc4c3CC(NC1=O)C(=O)NC(CC(C)(O)CO)C(=O)NC(C(C)C)C(=O)NC(C(O)C(=O)O)C(=O)N2 (stereo not drawn) [phallacidin] (cyclo([ξAsp(3ξ-OH)]C[Hyp]A[ξTrp(2-yl)][X1]V); thioether 2-5; configuration not given here)
mAb 9G3.2; [2]
  Cross reactivity: <0.3%
mAb 9G3.2; [3]
  IC50: >1 µg/mL
mAb 9C12.2; [4]
  Cross reactivity: <0.3%
mAb 9C12.2; [5]
  IC50: >1 µg/mL
mAb AMA9G3; [6]
  concentration at which test strips detect: 200
mAb AMA9G3
  CR (cross-reactivity): 0.005%

## C[C@@H]1NC(=O)[C@H](C[C@@](C)(O)CO)NC(=O)[C@@H]2Cc3c([nH]c4ccccc34)SC[C@H](NC(=O)[C@@H]([C@H](C)O)NC1=O)C(=O)N1C[C@@H](O)C[C@H]1C(=O)N[C@@H](C)C(=O)N2 [phalloidin] (cyclo(A[dT]C[cisHyp]A[Trp(2-yl)][Leu(4R-OH,5-OH)]); thioether 3-6)
mAb 9G3.2; [2]
  Cross reactivity: <0.3%
mAb 9G3.2; [3]
  IC50: >1 µg/mL
mAb 9C12.2; [4]
  Cross reactivity: <0.3%
mAb 9C12.2; [5]
  IC50: >1 µg/mL
mAb AMA9G3
  CR (cross-reactivity): 0.005%

## β-amanitin
mAb 9G3.2
  competitive inhibition of mAb 9G3.2: competitively inhibited
  recognition by mAb 9G3.2: recognizes
mAb 9G3.2; [2]
  Cross reactivity: 6.5%
mAb 9G3.2; [3]
  IC50: 0.0242 ± 0.0062 µg/mL
mAb 9C12.2
  competitive inhibition of mAb 9C12.2: no reduction in signal response
  recognition by mAb 9C12.2: recognizes
mAb 9C12.2; [4]
  Cross reactivity: <0.3%
mAb 9C12.2; [5]
  IC50: >1 µg/mL

## γ-amanitin
mAb 9G3.2
  competitive inhibition of mAb 9G3.2: competitively inhibited
  recognition by mAb 9G3.2: recognizes
mAb 9G3.2; [2]
  Cross reactivity: 96%
mAb 9G3.2; [3]
  IC50: 0.00163 ± 0.00021 µg/mL
mAb 9C12.2
  competitive inhibition of mAb 9C12.2: competitively inhibited
mAb 9C12.2; [4]
  Cross reactivity: 115%
mAb 9C12.2; [5]
  IC50: 0.0023 ± 0.00031 µg/mL
mAb AMA9G3
  concentration giving complete inhibition of the signal: 10 ng/mL
